Measured values published in patent US4517181A, “Mammalian PGRF” (The Salk Institute for Biological Studies, priority 1982, dated 1985).

Test system: cells of rat pituitary glands
Experiment: in vitro GH release, rat pituitary cell monolayer culture bioassay (ir GH by radioimmunoassay)
Format: cell-based
Conditions: for GH secretion in vitro % of controls: Table III; for biological potency (additional testing): compared with PGRF (1-40)
Description: To determine the effectiveness of the peptides to promote the release of growth hormone, in vitro assays are carried out using synthetic PGRF (1-40) of Example II in side-by-side comparison with equimolar concentrations of the extracted and purified native PGRF (1-40) and of a GRF Reference Standard having a known effectiveness to promote the release of growth hormone from pituitary cells. The GRF Reference standard is described and defined in Brazeau, et al., Endocrinology, Vol. 110, A538(1982) and is an amount of a preparation of rat hypothalamic origin that produces a half-maximal response in terms of GH release in a pituitary cell monolayer bioassay. Cultures are used which include cells of rat pituitary glands removed some four to five days previously. Both cultures of a defined standard medium and cultures which are considered optimal for the secretion of growth hormone are used for the comparative testing, in the general manner described in Brazeau, et al. Regulatory Peptides, 1, 255, 1981. Incubation with the substance to be tested is carried out for 3 to 4 hours, and aliquots of the culture medium are removed and processed to measure their contents in inmunoreactive GH(ir GH) by a well-characterized radioimmunoassay.
The in vitro assays described in Example VII are repeated using Native PGRF(1-40) and Native PGRF(1-44) and the results are set forth in following Table III: […]

SMILES: CC[C@H](C)[C@H](NC(=O)[C@H](C)NC(=O)[C@H](CC(=O)O)NC(=O)[C@H](C)NC(=O)[C@@H](N)Cc1ccc(O)cc1)C(=O)N[C@@H](Cc1ccccc1)C(=O)N[C@H](C(=O)N[C@@H](CC(N)=O)C(=O)N[C@@H](CO)C(=O)N[C@@H](Cc1ccc(O)cc1)C(=O)N[C@@H](CCCNC(=N)N)C(=O)N[C@@H](CCCCN)C(=O)N[C@H](C(=O)N[C@@H](CC(C)C)C(=O)NCC(=O)N[C@@H](CCC(N)=O)C(=O)N[C@@H](CC(C)C)C(=O)N[C@@H](CO)C(=O)N[C@@H](C)C(=O)N[C@@H](CCCNC(=N)N)C(=O)N[C@@H](CCCCN)C(=O)N[C@@H](CC(C)C)C(=O)N[C@@H](CC(C)C)C(=O)N[C@@H](CCC(N)=O)C(=O)N[C@@H](CC(=O)O)C(=O)N[C@H](C(=O)N[C@@H](CCSC)C(=O)N[C@@H](CO)C(=O)N[C@@H](CCCNC(=N)N)C(=O)N[C@@H](CCC(N)=O)C(=O)N[C@@H](CCC(N)=O)C(=O)NCC(=O)N[C@@H](CCC(=O)O)C(=O)N[C@@H](CO)C(=O)N[C@@H](CC(N)=O)C(=O)N[C@@H](CCC(N)=O)C(=O)N[C@@H](CCC(=O)O)C(=O)N[C@@H](CCCNC(=N)N)C(=O)NCC(=O)N[C@@H](C)C(=O)N[C@@H](CCCNC(=N)N)C(=O)N[C@@H](C)C(=O)N[C@@H](CCCNC(=N)N)C(=O)N[C@@H](CC(C)C)C(N)=O)[C@@H](C)CC)C(C)C)[C@@H](C)O [Native PGRF (1-44)]
- GH secretion in vitro % of controls (6.3 femtomoles): 289 ± 10 % of controls
- GH secretion in vitro % of controls (12.5 femtomoles): 391 ± 8 % of controls
- GH secretion in vitro % of controls (25.0 femtomoles): 479 ± 8 % of controls
- GH secretion in vitro % of controls (50.0 femtomoles): 561 ± 14 % of controls
- GH secretion in vitro % of controls (100.0 femtomoles): 599 ± 7 % of controls
- GH secretion in vitro % of controls (200.0 femtomoles): 606 ± 6 % of controls
- GH secretion in vitro % of controls (400.0 femtomoles): 610 ± 5 % of controls
- Potency in terms of PGRF(1-40) (confidence limits of 1.616 and 3.131, computer calculated (BIOPROG)): 2.2261 ×PGRF(1-40)
- Potency in terms of GRF Reference Standard (per 1 femtomole, confidence limits of 0.122 and 0.239, computer calculated (BIOPROG)): 0.1696 unit

SMILES: CC[C@H](C)[C@H](NC(=O)[C@H](C)NC(=O)[C@H](CC(=O)O)NC(=O)[C@H](C)NC(=O)[C@@H](N)Cc1ccc(O)cc1)C(=O)N[C@@H](Cc1ccccc1)C(=O)N[C@H](C(=O)N[C@@H](CC(N)=O)C(=O)N[C@@H](CO)C(=O)N[C@@H](Cc1ccc(O)cc1)C(=O)N[C@@H](CCCNC(=N)N)C(=O)N[C@@H](CCCCN)C(=O)N[C@H](C(=O)N[C@@H](CC(C)C)C(=O)NCC(=O)N[C@@H](CCC(N)=O)C(=O)N[C@@H](CC(C)C)C(=O)N[C@@H](CO)C(=O)N[C@@H](C)C(=O)N[C@@H](CCCNC(=N)N)C(=O)N[C@@H](CCCCN)C(=O)N[C@@H](CC(C)C)C(=O)N[C@@H](CC(C)C)C(=O)N[C@@H](CCC(N)=O)C(=O)N[C@@H](CC(=O)O)C(=O)N[C@H](C(=O)N[C@@H](CCSC)C(=O)N[C@@H](CO)C(=O)N[C@@H](CCCNC(=N)N)C(=O)N[C@@H](CCC(N)=O)C(=O)N[C@@H](CCC(N)=O)C(=O)NCC(=O)N[C@@H](CCC(=O)O)C(=O)N[C@@H](CO)C(=O)N[C@@H](CC(N)=O)C(=O)N[C@@H](CCC(N)=O)C(=O)N[C@@H](CCC(=O)O)C(=O)O)[C@@H](C)CC)C(C)C)[C@@H](C)O [PGRF(1-37) free acid]
- GH-releasing activity (peptides isolated from human islet cell tumor): exhibit GH-releasing activity

SMILES: CC[C@H](C)[C@H](NC(=O)[C@H](C)NC(=O)[C@H](CC(=O)O)NC(=O)[C@H](C)NC(=O)[C@@H](N)Cc1ccc(O)cc1)C(=O)N[C@@H](Cc1ccccc1)C(=O)N[C@H](C(=O)N[C@@H](CC(N)=O)C(=O)N[C@@H](CO)C(=O)N[C@@H](Cc1ccc(O)cc1)C(=O)N[C@@H](CCCNC(=N)N)C(=O)N[C@@H](CCCCN)C(=O)N[C@H](C(=O)N[C@@H](CC(C)C)C(=O)NCC(=O)N[C@@H](CCC(N)=O)C(=O)N[C@@H](CC(C)C)C(=O)N[C@@H](CO)C(=O)N[C@@H](C)C(=O)N[C@@H](CCCNC(=N)N)C(=O)N[C@@H](CCCCN)C(=O)N[C@@H](CC(C)C)C(=O)N[C@@H](CC(C)C)C(=O)N[C@@H](CCC(N)=O)C(=O)N[C@@H](CC(=O)O)C(=O)N[C@H](C(=O)N[C@@H](CCSC)C(=O)N[C@@H](CO)C(=O)N[C@@H](CCCNC(=N)N)C(=O)N[C@@H](CCC(N)=O)C(=O)N[C@@H](CCC(N)=O)C(=O)NCC(=O)N[C@@H](CCC(=O)O)C(=O)N[C@@H](C)C(=O)N[C@@H](CC(N)=O)C(=O)N[C@@H](CCC(N)=O)C(=O)N[C@@H](CCC(=O)O)C(=O)N[C@@H](CO)C(=O)NCC(=O)N[C@@H](CCCNC(=N)N)C(=O)O)[C@@H](C)CC)C(C)C)[C@@H](C)O [Example IV]
- biological potency (additional testing): substantially the same biological potency as the native PGRF (1-40)

SMILES: CC[C@H](C)[C@H](NC(=O)[C@H](C)NC(=O)[C@H](CC(=O)O)NC(=O)[C@H](C)NC(=O)[C@@H](N)Cc1ccc(O)cc1)C(=O)N[C@@H](Cc1ccccc1)C(=O)N[C@H](C(=O)N[C@@H](CC(N)=O)C(=O)N[C@@H](CO)C(=O)N[C@@H](Cc1ccc(O)cc1)C(=O)N[C@@H](CCCNC(=N)N)C(=O)N[C@@H](CCCCN)C(=O)N[C@H](C(=O)N[C@@H](CC(C)C)C(=O)NCC(=O)N[C@@H](CCC(N)=O)C(=O)N[C@@H](CC(C)C)C(=O)N[C@@H](CO)C(=O)N[C@@H](C)C(=O)N[C@@H](CCCNC(=N)N)C(=O)N[C@@H](CCCCN)C(=O)N[C@@H](CC(C)C)C(=O)N[C@@H](CC(C)C)C(=O)N[C@@H](CCC(N)=O)C(=O)N[C@@H](CC(=O)O)C(=O)N[C@H](C(=O)N[C@@H](CCSC)C(=O)N[C@@H](CO)C(=O)N[C@@H](CCCNC(=N)N)C(=O)N[C@@H](CCC(N)=O)C(=O)N[C@@H](CCC(N)=O)C(=O)NCC(=O)N[C@@H](CCC(=O)O)C(=O)N[C@@H](CO)C(=O)N[C@@H](CC(N)=O)C(=O)N[C@@H](CCC(N)=O)C(=O)N[C@@H](CCC(=O)O)C(=O)N[C@@H](CCCNC(=N)N)C(=O)NCC(=O)N[C@@H](C)C(N)=O)[C@@H](C)CC)C(C)C)[C@@H](C)O [Example V, PGRF (1-40)-amide]
- biological potency (additional testing): substantially twice the biological potency of the synthetic peptide tested in Example VII

SMILES: CC[C@H](C)[C@H](NC(=O)[C@H](C)NC(=O)[C@H](CC(=O)O)NC(=O)[C@H](C)NC(=O)[C@@H](N)Cc1ccc(O)cc1)C(=O)N[C@@H](Cc1ccccc1)C(=O)N[C@H](C(=O)N[C@@H](CC(N)=O)C(=O)N[C@@H](CO)C(=O)N[C@@H](Cc1ccc(O)cc1)C(=O)N[C@@H](CCCNC(=N)N)C(=O)N[C@@H](CCCCN)C(=O)N[C@H](C(=O)N[C@@H](CC(C)C)C(=O)NCC(=O)N[C@@H](CCC(N)=O)C(=O)N[C@@H](CC(C)C)C(=O)N[C@@H](CO)C(=O)N[C@@H](C)C(=O)N[C@@H](CCCNC(=N)N)C(=O)N[C@@H](CCCCN)C(=O)N[C@@H](CC(C)C)C(=O)N[C@@H](CC(C)C)C(=O)N[C@@H](CCC(N)=O)C(=O)N[C@@H](CC(=O)O)C(=O)N[C@H](C(=O)N[C@@H](CCSC)C(=O)N[C@@H](CO)C(=O)N[C@@H](CCCNC(=N)N)C(=O)N[C@@H](CCC(N)=O)C(=O)N[C@@H](CCC(N)=O)C(=O)NCC(=O)N[C@@H](CCC(=O)O)C(=O)N[C@@H](CO)C(=O)N[C@@H](CC(N)=O)C(=O)N[C@@H](CCC(N)=O)C(=O)N[C@@H](CCC(=O)O)C(=O)N[C@@H](CCCNC(=N)N)C(=O)NCC(=O)N[C@@H](C)C(=O)N[C@@H](CCCNC(=N)N)C(=O)N[C@@H](C)C(=O)N[C@@H](CCCNC(=N)N)C(=O)N[C@@H](CC(C)C)C(=O)O)[C@@H](C)CC)C(C)C)[C@@H](C)O [synthetic PGRF(1-44)-free acid, PGRF(1-44) free acid]
- potency compared with native PGRF(1-44) (further testing): somewhat less potency than native PGRF(1-44)
